Laboratory results from patent US10934346B2, “Modified T cell comprising a polynucleotide encoding an inducible stimulating molecule comprising MyD88, CD40 and FKBP12” (priority 2014, dated 2021).
Where two headings read alike, the source gives them in different places.

Key:
Capan-1 tumor = Capan-1 tumor xenograft in NSG mice with T cell bioluminescence imaging; format: in vivo
Description: FIG. 3A) Shorn mice were engrafted with Capan-1 tumor cells and treated with PSCA.ζ CAR T cells cotransduced with control vector or iMC, or non-transduced T cells, and injected i.v. on days 7 and 14. Exogenous IL-2 was given i.p. until day 21 and then withdrawn. All mice received 5 mg/kg rimiducid i.p. twice per week (biw). Tumor size was measured by calipers (FIG. 3B) and survival assessed over a 100-day period (FIG. 3C). FIG. 3D) to measure in vivo CAR T cell persistence and expansion, NSG mice were used. Mice were injected s.c. with Capan-1 tumor cells and then treated with non-transduced (NT) or FKBP and PSCA.ζ-modified T cells or iMC and PSCA.ζ-modified T cells. Mice treated with iMC-enabled T cells received 2.5 mg/kg rimiducid once (qw), twice weekly (biw) or saline only via i.p. injection. FIG. 3E) Subcutaneous tumor size was measured by calipers over a 30 day period.
FIG. 3F) In vivo bioluminescence imaging was performed on mice treated with iMC-transduced T cells receiving saline only, or with systemic rimiducid administration. […]
In vivo studies. […] Tumors were measured by calipers and tumor size calculated. […] Photon emission was analyzed by constant region-of-interest (ROI) drawn over the tumor region and the signal measured as total counts as previously validated^10. As above, efficacy was assessed by measuring tumors using calipers. […]

[1] = tested on: JNK, Akt, RelA, ERK and p38 MAPK; assay: Phosphorylation of downstream signaling molecules (Milliplex MAP assay, immunoblotting); format: cell-based, human; settings: 10 nM rimiducid, iMC T cells
Description: Immunoblotting. Primary human T cells transduced with either SFG-FKBP-2A-ΔCD19 or SFG-iMC-2A-ΔCD19 (4×10^6 per point) were cultured for the indicated time points in a 37° C. water bath with either 10 nM rimiducid, 250 nM each PMA and ionomycin, or media alone. Media as removed by aspiration after centrifugation at 6000 rpm for 2 min at 4° C. Cytoplasmic extracts were prepared by lysis in 100 μl radioimmuno-precipitation assay buffer (50 mM Tris, 150 mM NaCl, 1% NP40, 2 mM EDTA, 0.1% SDS, 0.25% sodium deoxycholate) containing 1×MS-SAFE (Roche). Lysates were incubated on ice for 10 min and cytoplasmic fractions were cleared by centrifugation at 11,000 rpm for 20 min at 4° C. […] Bound Abs were detected by HRP-conjugated goat-anti-rabbit IgG Ab (Pierce), followed by ECL (Pierce) and detection on a Gel Logic imaging system (Carestream). […]
Phosphorylated epitopes were detected in Assay Buffer 2 (MILLIPLEX MAP kit) with antibodies specific for p-RelA(S536), p-Akt(S473), p-p38(T180/Y182), p-JNK(T183/Y185), p-ERK1/2(T202/Y204) (custom MILLIPLEX Magnetic Bead MAPMATE kit; Millipore) or GAPDH as a control for total protein content. Fold increase in phosphorylation was calculated by net MFI of rimiducid treatment at a given time point divided by the net MFI of the corresponding non-stimulated time point. […]

[2] = cited from earlier work

Structure (SMILES): CC[C@H](C(=O)N1CCCC[C@H]1C(=O)O[C@H](CCc1ccc(OC)c(OC)c1)c1cccc(OCC(=O)NCCNC(=O)COc2cccc([C@@H](CCc3ccc(OC)c(OC)c3)OC(=O)[C@@H]3CCCCN3C(=O)[C@@H](CC)c3cc(OC)c(OC)c(OC)c3)c2)c1)c1cc(OC)c(OC)c(OC)c1 (relative stereo) [rimiducid, 2-Piperidinecarboxylic acid, 1-[(2S)-1-oxo-2-(3,4,5-trimethoxyphenyl)butyl]-, 1,2-ethanediylbis [imino(2-oxo-2,1-ethanediyl)oxy-3,1-phenylene[(1R)-3-(3,4-Dimethoxyphenyl)propylidene]] ester, [2S-[1(R*),2R*[S*[S*[1(R*),2R*]]]]]-(9Cl)]
- tumor control (Capan-1 tumor; rimiducid 2.5 mg/kg once or twice weekly, iMC and PSCA.ζ T cells): enabled enhanced tumor control
- T cell bioluminescence (BLI) (Capan-1 tumor; systemically and at the subcutaneous tumor site): dramatic increase in T cell BLI
- onset of signaling after exposure [1]: ≤ 15 min
- phosphorylation of signaling pathways [1]: each of these signaling pathways show increased phosphorylation in T cells, with MAPK and JNK showing the greatest rimiducid-dependent activation
- plasma levels versus dose ([2]; 0.01, 0.05, 0.1, 0.5 and 1.0 mg/kg): directly proportional to dose
- plasma level as % of maximal concentration ([2]; 0.5 hours post-dose): approximately 18%
- plasma level as % of maximal concentration ([2]; 2 hours post-dose): ~7%
- plasma level as % of maximal concentration ([2]; 10 hours post-dose): ~1%
- well-tolerated doses ([2]; Phase I study): up to 1 mg/kg
- mean Cmax ([2]; plasma, over the 0.01-1.0 mg/kg dose range, infused IV over 2 hours): 10 to 1275 ng/mL
